Data taken from patent publication US20070167377A1, “Inhibitors of glycinamide ribonucleotide transformylase” (priority 2002, published 2007).
“Also recorded” adds a separate entry of the source. Where two headings read alike, the source gives them in different places.

Assays:
E. coli GAR Tfase [1] = molecular target: T1, E. coli GAR Tfase (Escherichia coli, UniProt P08179); assay: E. coli GAR Tfase inhibition; type: biochemical; details: E. coli GAR Tfase
Experimental: (§1) GAR and AICAR Tfase inhibition studies were conducted as previously detailed^28 with the exception that the AICAR Tfase inhibition was conducted in the absence of 5 mM β-mercaptoethanol and screened with 10 nM enzyme, […] inhibitor and […] of cofactor. The DHFR inhibition study was conducted as previously detailed with 10 nM enzyme, […] H2F, […] NADPH and […] inhibitor.
The Ki values for the folate analogues were measured as previously described (Boger, D. L., et al., Bioorg. Med. Chem. 1997, 5, 1817-1830). Briefly, each compound was dissolved in dimethyl sulfoxide (DMSO) and then diluted in assay buffer. […] Thus, all assays were conducted by mixing 10 μM 10-formyl-5,8-dideazafolate (fDDF), 20 μM inhibitor in total volume of 1 mL buffer (0.1 M HEPES, pH 7.5) at 26° C., and the reaction initiated by the addition of 76 nM E. coli or human GAR Tfase. The assay monitors the deformylation of fDDF (Δε=18.9 mM^−1 cm^−1 at 295 nm) resulting from the transfer of the formyl group to β-GAR.

human AICAR Tfase = human AICAR Tfase (Homo sapiens, UniProt P31939); assay: AICAR Tfase inhibition; type: biochemical
Experimental: as §1

DHFR = DHFR (Escherichia coli, UniProt P0ABQ4); assay: DHFR inhibition (101, 102); type: biochemical
[2] = molecular target: thymidylate synthetase (TS) (Homo sapiens, UniProt P04818); assay: Thymidylate synthetase inhibition; type: biochemical
CCRF-CEM cell line [3] = assay: CCRF-CEM cytotoxic assay; type: cell-based, human; details: Homo sapiens
Experimental: (§2) The cytotoxic activity of the compounds was measured using CCRF-CEM human leukemia cells, as described previously (Boger, D. L., et al., Bioorg. Med. Chem. 1997, 5, 1847-1852). Two mutant cell lines, CCRF-CEM/MTX and CCRF-CEM/FPGS^− were used to determine the dependence on the reduced folate active transport system and folylpolyglutamate synthetase (FPGS), respectively (Jansen, G., et al., Cancer Res. 1989, 49, 2455-2459).

CCRF-CEM/MTX cell line = assay: Cytotoxic assay, reduced folate carrier deficient mutant; type: cell-based, human; details: impaired reduced folate carrier
Experimental: as §2

[4] = system: CCRF-CEM/FPGS^− cell line; assay: Cytotoxic assay, FPGS deficient mutant; type: cell-based, human; details: lacks folylpolyglutamate synthase
Experimental: as §2

Chemical stability = type: physicochemical
Solubility = type: physicochemical; details: pH 7-8
E. coli GAR Tfase [5] = molecular target: T1, E. coli GAR Tfase; details: 10-formyl-TDAF, earlier studies; cited from earlier work
CCRF-CEM cell line [6] = details: earlier studies; cited from earlier work
[7] = earlier studies; cited from earlier work

In the case of `Nc1nc(N)c(CCCC(C(=O)C(F)(F)F)c2ccc(C(=O)N[C@@H](CCC(=O)O)C(=O)O)cc2)c(=O)[nH]1` (stereo partly drawn) [Compound 101, N-{4-[4-(2,4-Diamino-6-oxo-1,6-dihydropyrimidin-5-yl)-1-(2,2,2-trifluoroacetyl)butyl]benzoyl}-L-glutamic acid], the Ki (E. coli GAR Tfase [1]) is reported as 1900 nM, the “inhibition of AICAR Tfase (in words)” value (human AICAR Tfase) is reported as “inactivity; also recorded: inactive” and the Ki (human AICAR Tfase; AICAR Tfase) is reported as over 100000 nM. For the same compound, the “inhibition of DHFR (in words)” value (DHFR) was “inactive”, the Ki (DHFR; DHFR) was over 100000 nM and the “inhibition of TS (in words)” value [2] was “inactive”. The Ki ([2]; TS) was over 100000 nM, the IC50 (CCRF-CEM cell line [3]; in the presence of media purines) was over 100000 nM and the IC50 (CCRF-CEM cell line [3]; purines (hypoxanthine) absent in the media) was 16 nM. For the same compound, the “cytotoxic activity (in words)” value (CCRF-CEM/MTX cell line) was “lost activity”, the “cytotoxic activity (in words)” value [4] was “lacked or lost activity” and the “chemical stability (in words)” value (Chemical stability) was “chemically stable”. The “stability at pH 7-8” value (Chemical stability; pH 7-8 buffers in the presence of air, 7 days) was “excellent; also recorded: no decomposition or reaction” and the solubility (Solubility) was “excellent”.

For `Nc1nc2ccc(CC(C=O)c3ccc(C(=O)N[C@@H](CCC(=O)O)C(=O)O)cc3)cc2c(=O)[nH]1` (some centres unmarked) [Compound 103, 10-formyl-5,8,10-trideazafolic acid], the Ki (E. coli GAR Tfase [5]) is listed as 260 nM, the “cytotoxic activity (in words)” value (CCRF-CEM cell line [6]) is listed as “failed to exhibit effective cytotoxic activity” and the “chemical stability (in words)” value [7] is listed as “poor stability; also recorded: facile oxidative decarbonylation”.
